Reference: paper PMC5958115, “A novel small molecule chaperone of rod opsin and its potential therapy for retinal degeneration” (Nature Communications, 2018)

Key:
C57BL/6 mice = test: Retinoid cycle analysis: 11-cis-retinyl-oxime recovery after bleaching; format: in vivo, mouse; conditions: 200 mg kg^−1 bw i.p. 30 min before 10,000 lux 10 min; vs DMSO
Procedure: To test if treatment with YC-001 affects visual pigment regeneration, we quantified the 11-cis-retinyl-oxime extracted from retinas of C57BL/6 mice after different periods of dark adaptation following exposure to bright light. Mice at 6 weeks of age were administered YC-001 at 200 mg kg^−1 bw via i.p. injection. At 30 min following YC-001 administration, eyes were dilated with 1% tropicamide. Mice then were anesthetized with a cocktail containing 20 mg mL^−1 of ketamine and 1.75 mg mL^−1 of xylazine at a dose of 4 μL g^−1 bw. Anesthetized mice were exposed to bright light with an intensity of 10,000 lux for 10 min to bleach about 90% of the rhodopsin pigment. Mice then were returned to the dark for recovery. Animals then were euthanized at 0, 2, 4, 6 or 24 h after bleaching and recovery in the dark, and their eyes were removed and homogenized in 1 mL of 1:1 PBS:ethanol mixture (v/v) containing 40 mM hydroxylamine. […] 11-cis-Retinyl-oxime released from the regenerated rhodopsin pigments were separated on an Agilent Sil column (5 µm, 4.6 × 250 mm) with an isocratic flow of 10% ethyl acetate in hexanes (1.5 mL min^−1) and detected at 325 nm. Amounts of 11-cis-retinyl-oximes per eye were quantified by normalizing the peak area to an 11-cis-retinyl-oxime standard. 11-cis-Retinyl-oximes were quantified in three eye samples per condition, and the means and s.d.s were calculated.

bovine rod opsin = molecular target: T1, bovine rod opsin (Bos taurus, UniProt P02699); test: Gt activation assay (GTPγS-induced fluorescence change); format: biochemical
T1 construct: Constitutive activity of bovine opsin in disc membranes; from tissue; host or cells: bovine retina ROS membranes (opsin membranes and purified Gt)
Procedure: Gt was extracted and purified from frozen bovine ROS membranes as described in Preparation of Opsin Membranes. The intrinsic increase in the fluorescence from Gtα was measured with a L55 luminescence spectrophotometer (PerkinElmer Life Sciences) using an excitation and emission wavelengths of 300 and 345 nm, respectively[39],[40]. […] DMSO-treated opsin membranes were used to obtain a baseline for the basal activity of opsin. The molar ratio of opsin to Gt was 1:10, with opsin at a concentration of 100 nM and Gt at 1000 nM. […] This step was followed by the addition of 300 μM GTPγS (Sigma-Aldrich) to determine the GTPγS-induced complex dissociation and corresponding fluorescence changes. Gt activation rates were determined and plotted for the first 100 s of the Gt activation assay[40],[67].

[1] = test system: S. typhimurium TA1535, TA97a, TA98, TA100 and E. coli WP2; test: Micro Ames bacterial mutation test, five strains, with or without S9; conditions: 0.075-250 µg per well
Procedure: To determine the potential genotoxicity of YC-001, a Micro Ames test was performed by the Charles River Laboratories, Inc. The S9 microsomal fraction was obtained from Moltox Molecular Toxicology, Inc. (Boone, NC, USA). A premixture was prepared including 25 µL of S9 mix (10% v/v S9 fraction in 8 mM MgCl2, 33 mM KCl, 100 mM sodium phosphate buffer, pH 7.4, +S9) or phosphate buffer (0.2 M sodium phosphate, pH 7.4, no S9), 5 µL of bacterial culture (>1000 × 10^6 bacteria mL^−1) and 100 µL of molten top agar supplemented with 0.05 mM biotin and minimal histidine (0.05 mM) and minimal tryptophan (0.05 mM). The 24-well plates were prepared by adding 1.3 mL of minimal bottom agar (1.3% agar, Vogel-Bonner medium E and 0.25% glucose) to each well. A 10 µL aliquot of YC-001 working solution/negative/positive control was added to each well followed by addition of 130 µL of the premixture. The plates kept on a leveled surface for 1 h while the top agar solidified, then were incubated at 37 °C for 72 h. After this period, plates were stored at 4 °C before revertant colony counts were manually recorded using an inverted microscope. […]

T1 sequence (P02699 whole entry): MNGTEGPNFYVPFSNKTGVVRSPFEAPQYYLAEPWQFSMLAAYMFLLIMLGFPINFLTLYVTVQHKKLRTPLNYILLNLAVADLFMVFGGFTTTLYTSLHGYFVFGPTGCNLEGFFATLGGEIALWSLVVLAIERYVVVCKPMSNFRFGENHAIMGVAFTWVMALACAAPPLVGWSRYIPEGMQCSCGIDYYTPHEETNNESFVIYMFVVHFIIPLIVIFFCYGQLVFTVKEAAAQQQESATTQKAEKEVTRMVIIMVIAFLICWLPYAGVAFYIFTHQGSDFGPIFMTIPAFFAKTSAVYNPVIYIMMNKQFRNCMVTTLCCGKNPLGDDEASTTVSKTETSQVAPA

Compound: O=C1OCC(c2ccc(Cl)s2)=C1c1cccs1 [YC-001]
- recovery of 11-cis-retinyl-oxime after bleaching (C57BL/6 mice): little difference
- initial rate of Gt activation, ln(kinitial) (bovine rod opsin; 40 µM compound, constitutive activity of opsin, DMSO control −5.3): −6.1
- initial rate of Gt activation, ln(kinitial) (bovine rod opsin; co-treated with 40 µM 9-cis-retinal and 40 µM YC-001, upon illumination): −4.9
- Ames test result [1]: negative

Compound: CC1=C(/C=C/C(C)=C\C=C\C(C)=C\C=O)C(C)(C)CCC1 [9-cis-retinal, reference compound]
- initial rate of Gt activation, ln(kinitial) (bovine rod opsin; isorhodopsin regenerated by 40 µM 9-cis-retinal alone, upon illumination): −4.6
